Measured values reported in US20100081679A1, “DIAMINOPYRIMIDINES AS FUNGICIDES” (Bayer CropScience AG, priority 2007, published 2010).
Marks after values point to notes of the source that are not given here.

Assay: logP determination via retention times, calibrated with unbranched alkan-2-ones
Assay type: physicochemical
Details: HPLC on reversed-phase C 18, EEC Directive 79/831 Annex V.A8; method *: 40° C., 0.1% aqueous formic acid and acetonitrile, linear gradient 10% to 95% acetonitrile
In the case of `CN(C=O)c1ccc(Nc2ncc(Cl)c(NCC3CC3)n2)cc1` [compound 545], the logP is reported as 1.56*. For `CC(C)(CCl)C(=O)Nc1ccc(Nc2ncc(Cl)c(NCC3CC3)n2)cc1` [compound 556], the logP was 2.02*. With `CC(=O)Nc1cc(Nc2ncc(Cl)c(NCC3CC3)n2)ccc1O` [compound 552] the logP was 1.29*. With `CCOC(=O)Nc1ccc(Nc2ncc(Cl)c(NCC3CC3)n2)cc1` [compound 543] the logP was 1.8*. For `COC(=O)Cc1cccc(Nc2ncc(Cl)c(NCC3CC3)n2)c1` [compound 504], the logP was 1.92*. With `Clc1ccc(Nc2ncc(Br)c(NCC3CC3)n2)cc1` [compound 474] the logP was 2.67*. With `CC(C)(C)NC(=O)Cc1cccc(Nc2ncc(Cl)c(NC3CC3)n2)c1` [compound 562] the logP was 1.81*. For `Oc1ccc(Nc2ncc(Br)c(NCC3CC3)n2)c(F)c1` [compound 478], the logP was 1.51*. With `FC(F)Oc1ccc(Nc2ncc(Cl)c(NCC3CC3)n2)cc1` [compound 538] the logP was 2.25*.

Same assay, conditions: HPLC on reversed-phase C 18, method **: 43° C.; 0.1% aqueous phosphoric acid and acetonitrile; linear gradient 10% to 95% acetonitrile
For `CN(c1nc(Nc2cccc(N3CCCC3=O)c2)ncc1Cl)C1CC1` [compound 769], the logP was 2.22**. In the case of `COC(=O)Nc1ccc(Nc2ncc(Cl)c(N(C)CC3CC3)n2)cc1` [compound 970], the logP is reported as 1.99**. For `CN(c1nc(Nc2ccccc2)ncc1Br)C1CC1` [compound 928], the logP was 1.7**.

Same assay, conditions: HPLC on reversed-phase C18, method **: 43° C.; mobile phase 0.1% aqueous phosphoric acid and acetonitrile; linear gradient 10% to 95% acetonitrile
For `O=S(=O)(Cc1ccc(Nc2ncc(Cl)c(NC3CC3)n2)cc1)NC1CC1` [compound 334], the logP was 1.58**.

Same assay, conditions: HPLC on reversed-phase C18, method *: 40° C., 0.1% aqueous formic acid and acetonitrile, linear gradient 10% to 95% acetonitrile
For `OC(c1cccc(Nc2ncc(C(F)(F)F)c(NC3CC3)n2)c1)C(F)(F)F` (centres unmarked) [compound 666], the logP was 2.69*. In the case of `Cc1ccccc1Nc1ncc(Cl)c(NC2CC2)n1` [compound 938], the logP is reported as 1.61*. With `Clc1cnc(Nc2ccccc2Oc2ccccc2)nc1NC1CC1` [compound 901] the logP was 3.14*. For `CS(=O)(=O)c1ccc(Nc2ncc(Cl)c(NCC3CC3)n2)cc1` [compound 670], the logP was 1.97*. With `Fc1ccc(F)c(Nc2ncc(Cl)c(NC3CC3)n2)c1` [compound 948] the logP was 2.91*. In the case of `COc1ccccc1Nc1ncc(Cl)c(NCC2CC2)n1` [compound 687], the logP is reported as 1.99*. For `CC(=O)CCc1cccc(Nc2ncc(C(F)(F)F)c(NC3CC3)n2)c1` [compound 959], the logP was 2.68*. For `COCC(C)Nc1ccc(Nc2ncc(Cl)c(NC3CC3)n2)cc1` (centres unmarked) [Example 110], the logP was 2.03*. In the case of `FC(F)c1cnc(Nc2ccccc2)nc1NC1CC1` [compound 722], the logP is reported as 1.56*. For `O=C(Nc1ccccc1)Nc1cccc(Nc2ncc(Cl)c(NC3CC3)n2)c1` [compound 717], the logP was 1.93*. For `COC(=O)Nc1ccc(Nc2ncc(Cl)c(NC(C)C3CC3)n2)cc1` (centres unmarked) [compound 168], the logP was 1.64*. With `CCCCc1ccccc1Nc1ncc(Cl)c(NC2CC2)n1` [compound 911] the logP was 2.3*. In the case of `CCCSc1cccc(Nc2ncc(Br)c(NC3CC3)n2)c1` [compound 706], the logP is reported as 3.49*. For `C#CCS(=O)(=O)c1ccc(Nc2ncc(Cl)c(NC3CC3)n2)cc1` [compound 161], the logP was 2.21*. In the case of `COc1cccc(Nc2ncc(Cl)c(NCC3CC3)n2)c1` [compound 668], the logP is reported as 1.97*. With `CCC(=O)c1ccc(Nc2ncc(Cl)c(NCC3CC3)n2)cc1` [compound 677] the logP was 2.55*. With `Oc1ccc(Nc2ncc(Br)c(NC3CC3)n2)cc1F` [compound 764] the logP was 1.41*. For `CCC(=O)Nc1cc(Nc2ncc(Br)c(NC3CC3)n2)ccc1O` [compound 767], the logP was 1.85*. With `N#Cc1cc(Nc2ncc(Cl)c(NC3CC3)n2)c(F)cc1Cl` [compound 936] the logP was 3.33*. With `COC(=O)c1ccc(Nc2ncc(Cl)c(NCC3CC3)n2)cc1Cl` [compound 691] the logP was 3.1*. With `C=CCNC(=O)c1ccc(Nc2ncc(Br)c(NC3CC3)n2)cc1` [compound 755] the logP was 1.73*. In the case of `O=C(c1ccc(Nc2ncc(C(F)(F)F)c(NCC3CC3)n2)cc1)N1CCCCC1` [compound 704], the logP is reported as 3.04*. In the case of `COCc1cccc(Nc2ncc(Cl)c(NCC3CC3)n2)c1` [compound 709], the logP is reported as 1.82*.

Same assay, conditions: HPLC on reversed-phase C18, method *: 40° C.; mobile phase 0.1% aqueous formic acid and acetonitrile; linear gradient 10% to 95% acetonitrile
With `CSc1ccc(Nc2ncc(Cl)c(NC3CC3)n2)cc1C(F)(F)F` [compound 322] the logP was 3.48*. For `Cc1cccc(C)c1Nc1ncc(Cl)c(NC2CC2)n1` [compound 273], the logP was 1.59*. With `CC(C)(C)OC(=O)Nc1cccc(Nc2ncc(Cl)c(NC3CC3)n2)c1` [compound 330] the logP was 2.27*. For `CN(C)S(=O)(=O)c1ccc(Nc2ncc(Br)c(NC3CC3)n2)cc1` [compound 346], the logP was 2.33*. In the case of `Clc1cnc(Nc2cccc(-c3nccs3)c2)nc1NC1CC1` [compound 297], the logP is reported as 2.21*.

Same assay, conditions: HPLC on reversed-phase C18 column (EEC Directive 79/831 Annex V.A8); method *: 40° C.; 0.1% aqueous formic acid and acetonitrile; linear gradient 10% to 95% acetonitrile
In the case of `FC(F)C(F)(F)Oc1cccc(Nc2ncc(Cl)c(NC3CC3)n2)c1` [compound 182], the logP is reported as 3.03*. In the case of `O=S1(=O)Cc2ccc(Nc3ncc(Cl)c(NC4CC4)n3)cc2C1` [compound 245], the logP is reported as 1.51*. In the case of `O=C1CCCc2ccc(Nc3ncc(Cl)c(NC4CC4)n3)cc2N1` [compound 181], the logP is reported as 1.41*. For `Clc1cnc(Nc2cccc(-c3cccs3)c2)nc1NC1CC1` [compound 197], the logP was 2.9*. For `O=S(=O)(c1cccc(Nc2ncc(Cl)c(NC3CC3)n2)c1)N1CCCCC1` [compound 246], the logP was 2.8*. With `O=S(=O)(Cc1cccc(Nc2ncc(Cl)c(NC3CC3)n2)c1)N1CCOCC1` [compound 261] the logP was 1.62*. For `CC(=O)c1cc(Nc2ncc(Cl)c(NC3CC3)n2)ccc1Cl` [compound 249], the logP was 2.43*. In the case of `CCOc1ccc(Nc2ncc(Cl)c(NC3CC3)n2)cc1` [compound 183], the logP is reported as 1.76*. With `Brc1cnc(Nc2ccc(-c3nccs3)cc2)nc1NC1CC1` [compound 251] the logP was 2.49*.

Same assay, conditions: HPLC reversed-phase C 18, EEC Directive 79/831 Annex V.A8; method **: 43° C., 0.1% aqueous phosphoric acid and acetonitrile, linear gradient 10% to 95% acetonitrile
With `CON(C(C)=O)c1cccc(Nc2ncc(Br)c(NC3CC3)n2)c1` [compound 849] the logP was 1.68**.

Same assay, conditions: HPLC reversed-phase C 18, EEC Directive 79/831 Annex V.A8; method *: 40° C., 0.1% aqueous formic acid and acetonitrile, linear gradient 10% to 95% acetonitrile
For `CC(=O)Nc1ccc(Nc2ncc(Cl)c(NC3CC3)n2)cc1O` [compound 822], the logP was 1*. With `Cc1ccc(Nc2ncc(Br)c(NC3CC3)n2)cc1CC#N` [compound 820] the logP was 1.85*. In the case of `N#CCc1cccc(Nc2ncc(Cl)c(NCC3CC3)n2)c1` [compound 821], the logP is reported as 1.81*.

Same assay, conditions: method **: HPLC reversed-phase C 18, 43° C., 0.1% aqueous phosphoric acid and acetonitrile, linear gradient 10% to 95% acetonitrile
In the case of `COC(=O)c1ccc(Nc2ncc(Cl)c(NC3CC3)n2)cc1.Cl` [compound 36], the logP is reported as 2.25**.

Same assay, conditions: method *: HPLC reversed-phase C18, 40° C., 0.1% aqueous formic acid and acetonitrile, linear gradient 10% to 95% acetonitrile
With `CC(C)COc1cccc(Nc2ncc(Br)c(NC3CC3)n2)c1` [compound 445] the logP was 3.36*. In the case of `O=C1CCC(=O)N1c1cccc(Nc2ncc(Br)c(NC3CC3)n2)c1` [compound 447], the logP is reported as 1.38*. For `N#CCS(=O)(=O)c1ccc(Nc2ncc(Cl)c(NC3CC3)n2)cc1` [compound 62], the logP was 2.2*. In the case of `O=C1CCCN1Cc1cccc(Nc2ncc(Cl)c(NC3CC3)n2)c1` [compound 433], the logP is reported as 1.45*. With `O=C1CCCN1c1ccc(Nc2ncc(Br)c(NC3CC3)n2)cc1` [Example 97] the logP was 1.49*. In the case of `CC(C)CCSc1cccc(Nc2ncc(Cl)c(NC3CC3)n2)c1.Cc1ccc(S(=O)(=O)O)cc1` [compound 441], the logP is reported as 4.24*. With `CC(C)(CF)C(=O)Nc1ccc(Nc2ncc(Cl)c(NC3CC3)n2)cc1` [Example 67] the logP was 1.74*. With `CSc1ccc(Nc2ncc(Cl)c(NC3CC3)n2)cc1Cl` [compound 377] the logP was 2.84*. For `CC(C)(C)OC(=O)NCc1ccc(Nc2ncc(Cl)c(NC3CC3)n2)cc1` [compound 90], the logP was 2.15*.

Same assay, conditions: method *: HPLC reversed-phase C 18, temperature 40° C.; mobile phase 0.1% aqueous formic acid and acetonitrile; linear gradient 10% to 95% acetonitrile
With `CCN(C(C)=O)c1ccc(Nc2ncc(F)c(NC3CC3)n2)cc1` [compound 581] the logP was 1.38*. With `O=C(Nc1ccc(Nc2ncc(F)c(NC3CC3)n2)cc1)C(F)(F)F` [compound 583] the logP was 1.58*. For `Fc1cccc(Nc2ncc(Cl)c(NC3CC3)n2)c1` [compound 620], the logP was 3.15*. With `CC(=O)c1cccc(Nc2ncc(F)c(NC3CC3)n2)c1` [compound 591] the logP was 1.45*. For `CC(C)(C)OC(=O)NCc1ccc(Nc2ncc(C#N)c(NC3CC3)n2)cc1` [compound 615], the logP was 2.77*. With `COc1cccc(Nc2ncc(F)c(NC3CC3)n2)c1` [compound 573] the logP was 1.51*.

Same assay, conditions: method *: HPLC, reversed-phase C 18, 40° C., mobile phase 0.1% aqueous formic acid and acetonitrile, linear gradient from 10% to 95% acetonitrile
With `CCCCOc1cc(Nc2ncc(Cl)c(NC3CC3)n2)ccc1C` [compound 991] the logP was 3.13*. In the case of `CCSC(C)c1cccc(Nc2ncc(C(F)(F)F)c(NC3CC3)n2)c1` (centres unmarked) [compound 987], the logP is reported as 4.19*.

Same assay, conditions: pH 2.3; read-out: logP (pH2.3)
`Cc1cnc(Cl)nc1NC1CC1` [2-chloro-N-cyclopropyl-5-methylpyrimidine-4-amine] gave a chromatographic logP of 1.28. Molecule `Clc1cnc(Nc2ccccc2)nc1Cl` [4,5-Dichloro-N-phenylpyrimidine-2-amine] has a chromatographic logP of 3.52. `Clc1ncc(Br)c(NC2CC2)n1` [5-bromo-2-chloro-N-cyclopropylpyrimidine-4-amine] gave a chromatographic logP of 1.97. `NS(=O)(=O)c1cccc(Nc2ncc(Cl)c(NC3CC3)n2)c1` [Example 15, 3-{[5-Chloro-4-(cyclopropylamino)pyrimidin-2-yl]amino}benzenesulphonamide] gave a chromatographic logP of 1.37.

Same assay, conditions: reversed-phase C18 HPLC column; method **: HPLC reversed-phase C 18, 43° C., 0.1% aqueous phosphoric acid and acetonitrile, linear gradient 10% to 95% acetonitrile; read-out: logP
For `NS(=O)(=O)c1cccc(Nc2ncc(Cl)c(NC3CC3)n2)c1` [Example 15, 3-{[5-Chloro-4-(cyclopropylamino)pyrimidin-2-yl]amino}benzenesulphonamide], the chromatographic logP was 1.37.
